Where “and” joins values, the source holds several entries; their conditions need not be identical. Identical values can stand only once.
Test system: CD strain 630
Assay: Example 7: Holloway model of CDI, GlcNAc or glucosamine in drinking water
Details: for Ethanol resistant CFU, CFU/g faeces: individual mice

Compound	CD colonisation (mouse, in vivo)	CD infections (CDI) in mice (mouse, in vivo)	Water consumption: Daily consumption per mouse (20 mg/ml in drinking water) [mL]	Ethanol resistant CFU, CFU/g faeces (20 mg/ml in drinking water, hydrochloride)	Water consumption: Daily consumption per mouse (50 mg/ml in drinking water) [mL]	Ethanol resistant CFU, CFU/g faeces (50 mg/ml in drinking water) [CFU/g faeces]	Water consumption: Daily consumption per mouse (100 mg/ml in drinking water) [mL]	Ethanol resistant CFU, CFU/g faeces (100 mg/ml in drinking water, hydrochloride)	CD colonisation (levels as low as 20 mg/ml in drinking water, summary in words)	CD infections (CDI) in mice (water containing 20 mg/ml, conclusion in words)
CC(=O)N[C@H]1C(O)O[C@H](CO)[C@@H](O)[C@@H]1O (stereo partly shown) [GlcNAc, N-acetyl-glucosamine]	could suppress CD colonisation	prevented CD infections	–	–	–	–	–	–	–	–
Cl.N[C@H]1C(O)O[C@H](CO)[C@@H](O)[C@@H]1O (stereo partly shown) [Glucosamine, Glucosamine hydrochloride]	–	–	4.2	0.00E+00 CFU/g faeces (5×) and 1.90E+06 CFU/g faeces	2.8	0.00E+00	1	0.00E+00 CFU/g faeces (4×) and 1.70E+05 CFU/g faeces and 8.00E+04 CFU/g faeces	could suppress CD colonisation	prevented CD infections
